Measured values taken from patent US8623843B2, “Antimicrobial compound and preparation thereof” (Shenzhen University, priority 2009, dated 2014).
Converted amounts (≈) assume the structure as drawn.

Tests used:
Type in all cases: cell-based
E. coli (8099) = assay: minimum inhibitory / bactericidal concentration for E. coli
S. aureas (ATCC6538) = assay: minimum inhibitory / bactericidal concentration for S. aureas
E. coli = assay: persistent antimicrobial activity of treated glass surface, colony (plate) counting method, E. coli
Description: (§1) The resulting products from the above examples were used for treating a glass surface respectively, a superhydrophilic surface at a contact angle of less than 10° […]. was all obtained. In addition, they were tested for antimicrobial activity and persistent antimicrobial activity using the colony counting method, and the results are shown in table 1.

S. aureas = assay: persistent antimicrobial activity of treated glass surface, colony (plate) counting method, S. aureas; set-up: concentration or dose not given beside the values
Description: as §1

Compound	minimum bactericidal concentration (MBC) (E. coli (8099))	minimum inhibitory concentration (MIC) (E. coli (8099))	minimum bactericidal concentration (MBC) (S. aureas (ATCC6538))	minimum inhibitory concentration (MIC) (S. aureas (ATCC6538))	persistent antimicrobial activity (plate counting method) (E. coli; wash times 0)	persistent antimicrobial activity (plate counting method) (E. coli; wash times 1)	persistent antimicrobial activity (plate counting method) (E. coli; wash times 5)	persistent antimicrobial activity (plate counting method) (E. coli; wash times 10)	persistent antimicrobial activity (plate counting method) (E. coli; wash times 30)	persistent antimicrobial activity (plate counting method) (S. aureas; wash times 0)	persistent antimicrobial activity (plate counting method) (S. aureas; wash times 1)	persistent antimicrobial activity (plate counting method) (S. aureas; wash times 5)	persistent antimicrobial activity (plate counting method) (S. aureas; wash times 10)	persistent antimicrobial activity (plate counting method) (S. aureas; wash times 30)
CCO[Si](CCC[N+](C)(C)CCCS(=O)(=O)[O-])(OCC)OCC [Embodiment 1, (CH3CH2O)3Si(CH2)3^+N(CH3)2(CH2)3SO3^−]	20 mg/mL (≈ 53.8 mM)	15 mg/mL (≈ 40.4 mM)	20 mg/mL (≈ 53.8 mM)	15 mg/mL (≈ 40.4 mM)	99.9%	99.8%	99.5%	99.0%	99.2%	99.9%	99.9%	99.6%	99.5%	99.0%
CCO[Si](C)(CCC[N+](C)(C)CC(=O)[O-])OCC [Embodiment 3, (CH3CH2O)2SiCH3(CH2)3^+N(CH3)2CH2CO2^−]	25 mg/mL (≈ 90.1 mM)	20 mg/mL (≈ 72.1 mM)	25 mg/mL (≈ 90.1 mM)	20 mg/mL (≈ 72.1 mM)	99.9%	99.8%	99.2%	97.9%	97.2%	99.9%	99.9%	99.5%	98.2%	97.6%
CCO[Si](C)(CCC[N+](C)(C)CCC(=O)[O-])OCC [Embodiment 4, (CH3CH2O)2SiCH3(CH2)3^+N(CH3)2(CH2)2CO2^−]	20 mg/mL (≈ 68.6 mM)	10 mg/mL (≈ 34.3 mM)	20 mg/mL (≈ 68.6 mM)	10 mg/mL (≈ 34.3 mM)	99.9%	99.8%	99.0%	98.6%	98.1%	99.9%	99.9%	99.6%	98.9%	98.3%
CC[N+](CC)(CCC[Si](OC)(OC)OC)CCCS(=O)(=O)[O-] [Embodiment 5, (CH3O)3Si(CH2)3^+N(CH2CH3)2(CH2)3SO3^−]	20 mg/mL (≈ 55.9 mM)	15 mg/mL (≈ 42 mM)	20 mg/mL (≈ 55.9 mM)	15 mg/mL (≈ 42 mM)	99.9%	99.7%	99.0%	98.7%	98.0%	99.9%	99.9%	99.5%	98.8%	98.2%
CC[N+](CC)(CCC[Si](OC)(OC)OC)CCS(=O)(=O)[O-] [Embodiment 6, (CH3O)3Si(CH2)3^+N(CH2CH3)2(CH2)2SO3^−]	25 mg/mL (≈ 72.8 mM)	20 mg/mL (≈ 58.2 mM)	25 mg/mL (≈ 72.8 mM)	20 mg/mL (≈ 58.2 mM)	99.9%	99.8%	99.3%	97.9%	97.2%	99.9%	99.9%	99.5%	98.2%	97.6%
CO[Si](CCCNCCNCCCS(=O)(=O)O)(OC)OC [Embodiment 7, (CH3O)3Si(CH2)3NH(CH2)2^+NH2(CH2)3SO3^−]	30 mg/mL (≈ 87.1 mM)	25 mg/mL (≈ 72.6 mM)	30 mg/mL (≈ 87.1 mM)	25 mg/mL (≈ 72.6 mM)	99.9%	99.5%	99.1%	98.6%	98.0%	99.9%	99.8%	99.6%	99.1%	98.2%
CCC[N+](CCC)(CCC[Si](OC)(OC)OC)CCCS(=O)(=O)[O-] [Embodiment 8, (CH3O)3Si(CH2)3^+N(CH2CH2CH3)2(CH2)3SO3^−]	20 mg/mL (≈ 51.9 mM)	15 mg/mL (≈ 38.9 mM)	20 mg/mL (≈ 51.9 mM)	15 mg/mL (≈ 38.9 mM)	99.9%	99.7%	99.3%	98.7%	98.2%	99.9%	99.9%	99.5%	98.8%	98.5%
(CH3CH2O)2SiCH3(CH2CH3)3^+N(CH3)2(CH2)3SO3^− [Embodiment 2]	30 mg/mL	25 mg/mL	30 mg/mL	25 mg/mL	99.9%	99.9%	99.3%	98.9%	98.5%	99.9%	99.9%	99.9%	99.6%	99.0%
